Results taken from US5843889A, “Glycopeptide antibiotic derivatives” (Eli Lilly and Company, priority 1997, dated 1998).
Converted amounts (≈) assume the structure as drawn.

Legend:
[1] = test system: Entercoccus faecalis 2041; assay: MIC, standard broth micro-dilution assay; assay type: cell-based
Experimental: (§1) The formula I compounds have in vitro and in vivo activity against Gram-positive pathogenic bacteria. The MIC's were determined using a standard broth micro-dilution assay.

[2] = test system: Entercoccus gallinarum 245; assay: MIC, standard broth micro-dilution assay; assay type: cell-based
Experimental: as §1

SMILES | MIC [1] [µg/mL] | MIC [2] [µg/mL]
CNC(CC(C)C)C(=O)NC1C(=O)NC(CC(N)=O)C(=O)NC2C(=O)NC3C(=O)NC(C(=O)NC(C(=O)O)c4cc(O)cc(O)c4-c4cc3ccc4O)C(OC3CC(C)(N)C(O)C(C)O3)c3ccc(c(Cl)c3)Oc3cc2cc(c3OC2OC(CO)C(O)C(O)C2OC2CC(C)(NCc3ccc4c(c3)CCCC4)C(O)C(C)O2)Oc2ccc(cc2Cl)C1O (centres unmarked) [Compound 168] | ≤ 0.06 | 2 (≈ 1.15 µM)
CNC(CC(C)C)C(=O)NC1C(=O)NC(CC(N)=O)C(=O)NC2C(=O)NC3C(=O)NC(C(=O)NC(C(=O)O)c4cc(O)cc(O)c4-c4cc3ccc4O)C(OC3CC(C)(N)C(O)C(C)O3)c3ccc(c(Cl)c3)Oc3cc2cc(c3OC2OC(CO)C(O)C(O)C2OC2CC(C)(NCc3ccc(N4CCOCC4)cc3)C(O)C(C)O2)Oc2ccc(cc2Cl)C1O (centres unmarked) [Compound 147, 4-morpholinobenzyl] | ≤ 0.06 | 
CNC(CC(C)C)C(=O)NC1C(=O)NC(CC(N)=O)C(=O)NC2C(=O)NC3C(=O)NC(C(=O)NC(C(=O)O)c4cc(O)cc(O)c4-c4cc3ccc4O)C(OC3CC(C)(N)C(O)C(C)O3)c3ccc(cc3)Oc3cc2cc(c3OC2OC(CO)C(O)C(O)C2OC2CC(C)(NCc3ccc(-c4ccccc4)cc3)C(O)C(C)O2)Oc2ccc(cc2)C1O (centres unmarked) [Compound 183, 4-phenylbenzyl] | ≤ 0.06 | 0.5 (≈ 0.296 µM)
CNC(CC(C)C)C(=O)NC1C(=O)NC(CC(N)=O)C(=O)NC2C(=O)NC3C(=O)NC(C(=O)NC(C(=O)O)c4cc(O)cc(O)c4-c4cc3ccc4O)C(OC3CC(C)(N)C(O)C(C)O3)c3ccc(c(Cl)c3)Oc3cc2cc(c3OC2OC(CO)C(O)C(O)C2OC2CC(C)(NCc3ccc(N4CCC(C)CC4)cc3)C(O)C(C)O2)Oc2ccc(cc2Cl)C1O (centres unmarked) [Compound 129, 4-[4-methyl-1-piperidino]benzyl] | ≤ 0.06 | 
CNC(CC(C)C)C(=O)NC1C(=O)NC(CC(N)=O)C(=O)NC2C(=O)NC3C(=O)NC(C(=O)NC(C(=O)O)c4cc(O)cc(O)c4-c4cc3ccc4O)C(OC3CC(C)(N)C(O)C(C)O3)c3ccc(c(Cl)c3)Oc3cc2cc(c3OC2OC(CO)C(O)C(O)C2OC2CC(C)(NCc3ccc4c(c3)CCc3ccccc3-4)C(O)C(C)O2)Oc2ccc(cc2Cl)C1O (centres unmarked) [Compound 220] | ≤ 0.06 | 0.5 (≈ 0.28 µM)
CNC(CC(C)C)C(=O)NC1C(=O)NC(CC(N)=O)C(=O)NC2C(=O)NC3C(=O)NC(C(=O)NC(C(=O)O)c4cc(O)cc(O)c4-c4cc3ccc4O)C(OC3CC(C)(N)C(O)C(C)O3)c3ccc(c(Cl)c3)Oc3cc2cc(c3OC2OC(CO)C(O)C(O)C2OC2CC(C)(NCc3ccc(OC(C)=O)c(OC)c3)C(O)C(C)O2)Oc2ccc(cc2Cl)C1O (centres unmarked) [Compound 99, 4-acetoxy-3-methoxybenzyl] |  | 32 (≈ 18.1 µM)
CNC(CC(C)C)C(=O)NC1C(=O)NC(CC(N)=O)C(=O)NC2C(=O)NC3C(=O)NC(C(=O)NC(C(=O)O)c4cc(O)cc(O)c4-c4cc3ccc4O)C(OC3CC(C)(N)C(O)C(C)O3)c3ccc(c(Cl)c3)Oc3cc2cc(c3OC2OC(CO)C(O)C(O)C2OC2CC(C)(NCc3ccc([N+](=O)[O-])cc3)C(O)C(C)O2)Oc2ccc(cc2Cl)C1O (centres unmarked) [Compound 78, 4-nitrobenzyl] | ≤ 0.06 | 
CNC(CC(C)C)C(=O)NC1C(=O)NC(CC(N)=O)C(=O)NC2C(=O)NC3C(=O)NC(C(=O)NC(C(=O)O)c4cc(O)cc(O)c4-c4cc3ccc4O)C(OC3CC(C)(N)C(O)C(C)O3)c3ccc(c(Cl)c3)Oc3cc2cc(c3OC2OC(CO)C(O)C(O)C2OC2CC(C)(NCC3CCC4CCCC43)C(O)C(C)O2)Oc2ccc(cc2Cl)C1O (stereo not drawn) [Compound 190, cis-bicyclo[3.3.0]octane-2-methyl] | ≤ 0.06 | 8 (≈ 4.67 µM)
CNC(CC(C)C)C(=O)NC1C(=O)NC(CC(N)=O)C(=O)NC2C(=O)NC3C(=O)NC(C(=O)NC(C(=O)O)c4cc(O)cc(O)c4-c4cc3ccc4O)C(OC3CC(C)(N)C(O)C(C)O3)c3ccc(c(Cl)c3)Oc3cc2cc(c3OC2OC(CO)C(O)C(O)C2OC2CC(C)(NCc3c(C)c(C)c(C)c(C)c3C)C(O)C(C)O2)Oc2ccc(cc2Cl)C1O (centres unmarked) [Compound 73] |  | 2 (≈ 1.14 µM)
CCOc1cc(CNC2(C)CC(OC3C(Oc4c5cc6cc4Oc4ccc(cc4Cl)C(OC4CC(C)(N)C(O)C(C)O4)C4NC(=O)C(NC(=O)C6NC(=O)C(CC(N)=O)NC(=O)C(NC(=O)C(CC(C)C)NC)C(O)c6ccc(c(Cl)c6)O5)c5ccc(O)c(c5)-c5c(O)cc(O)cc5C(C(=O)O)NC4=O)OC(CO)C(O)C3O)OC(C)C2O)ccc1OCC1CCCCC1 (centres unmarked) [Compound 105, 4-[cyclohexylmethoxy]-3-ethoxybenzyl] |  | 1 (≈ 0.544 µM)
CNC(CC(C)C)C(=O)NC1C(=O)NC(CC(N)=O)C(=O)NC2C(=O)NC3C(=O)NC(C(=O)NC(C(=O)O)c4cc(O)cc(O)c4-c4cc3ccc4O)C(OC3CC(C)(N)C(O)C(C)O3)c3ccc(c(Cl)c3)Oc3cc2cc(c3OC2OC(CO)C(O)C(O)C2OC2CC(C)(NCC3CCCCC3)C(O)C(C)O2)Oc2ccc(cc2Cl)C1O (centres unmarked) [Compound 161, cyclohexylmethyl] | ≤ 0.06 | 8 (≈ 4.74 µM)

Next, values leading:

MIC [1] [µg/mL] | MIC [2] [µg/mL] | SMILES
 | 4 (≈ 2.24 µM) | CNC(CC(C)C)C(=O)NC1C(=O)NC(CC(N)=O)C(=O)NC2C(=O)NC3C(=O)NC(C(=O)NC(C(=O)O)c4cc(O)cc(O)c4-c4cc3ccc4O)C(OC3CC(C)(N)C(O)C(C)O3)c3ccc(c(Cl)c3)Oc3cc2cc(c3OC2OC(CO)C(O)C(O)C2OC2CC(C)(NCc3ccc(-c4ccc(C)cc4)c(C)c3)C(O)C(C)O2)Oc2ccc(cc2Cl)C1O (centres unmarked) [Compound 225, 4-[4-methylphenyl]-3-methylbenzyl]
≤ 0.06 | 2 (≈ 1.12 µM) | CNC(CC(C)C)C(=O)NC1C(=O)NC(CC(N)=O)C(=O)NC2C(=O)NC3C(=O)NC(C(=O)NC(C(=O)O)c4cc(O)cc(O)c4-c4cc3ccc4O)C(OC3CC(C)(N)C(O)C(C)O3)c3ccc(c(Cl)c3)Oc3cc2cc(c3OC2OC(CO)C(O)C(O)C2OC2CC(C)(NCc3ccc(CCc4ccccc4)cc3)C(O)C(C)O2)Oc2ccc(cc2Cl)C1O (centres unmarked) [Compound 100, 4-[(2-phenyl)ethyl]benzyl]
≤ 0.06 | 2 (≈ 1.13 µM) | CNC(CC(C)C)C(=O)NC1C(=O)NC(CC(N)=O)C(=O)NC2C(=O)NC3C(=O)NC(C(=O)NC(C(=O)O)c4cc(O)cc(O)c4-c4cc3ccc4O)C(OC3CC(C)(N)C(O)C(C)O3)c3ccc(c(Cl)c3)Oc3cc2cc(c3OC2OC(CO)C(O)C(O)C2OC2CC(C)(NCc3cc(-c4ccccc4)ccc3O)C(O)C(C)O2)Oc2ccc(cc2Cl)C1O (centres unmarked) [Compound 85, 2-hydroxy-5-phenylbenzyl]
 | 2 (≈ 1.13 µM) | CN[C@H](CC(C)C)C(=O)N[C@H]1C(=O)N[C@@H](CC(N)=O)C(=O)N[C@H]2C(=O)N[C@H]3C(=O)N[C@H](C(=O)N[C@H](C(=O)O)c4cc(O)cc(O)c4-c4cc3ccc4O)[C@H](O[C@H]3C[C@](C)(N)[C@@H](O)[C@H](C)O3)c3ccc(c(Cl)c3)Oc3cc2cc(c3O[C@@H]2O[C@H](CO)[C@@H](O)[C@H](O)[C@H]2O[C@H]2C[C@](C)(NCc3ccc(-c4cccc(F)c4)cc3)[C@@H](O)[C@H](C)O2)Oc2ccc(cc2Cl)[C@H]1O [Compound 92, 4-[3-fluorophenyl]benzyl]
≤ 0.06 | 1 (≈ 0.55 µM) | CNC(CC(C)C)C(=O)NC1C(=O)NC(CC(N)=O)C(=O)NC2C(=O)NC3C(=O)NC(C(=O)NC(C(=O)O)c4cc(O)cc(O)c4-c4cc3ccc4O)C(OC3CC(C)(N)C(O)C(C)O3)c3ccc(c(Cl)c3)Oc3cc2cc(c3OC2OC(CO)C(O)C(O)C2OC2CC(C)(NCc3ccc(OCCCc4ccccc4)cc3)C(O)C(C)O2)Oc2ccc(cc2Cl)C1O (centres unmarked) [Compound 223, 4-[3-phenylpropyloxy]benzyl]
 | 8 (≈ 4.28 µM) | CCCCCCCCc1ccc(-c2ccc(CNC3(C)CC(OC4C(Oc5c6cc7cc5Oc5ccc(cc5Cl)C(OC5CC(C)(N)C(O)C(C)O5)C5NC(=O)C(NC(=O)C7NC(=O)C(CC(N)=O)NC(=O)C(NC(=O)C(CC(C)C)NC)C(O)c7ccc(c(Cl)c7)O6)c6ccc(O)c(c6)-c6c(O)cc(O)cc6C(C(=O)O)NC5=O)OC(CO)C(O)C4O)OC(C)C3O)cc2)cc1 (centres unmarked) [Compound 21]
≤ 0.06 |  | CNC(CC(C)C)C(=O)NC1C(=O)NC(CC(N)=O)C(=O)NC2C(=O)NC3C(=O)NC(C(=O)NC(C(=O)O)c4cc(O)cc(O)c4-c4cc3ccc4O)C(OC3CC(C)(N)C(O)C(C)O3)c3ccc(c(Cl)c3)Oc3cc2cc(c3OC2OC(CO)C(O)C(O)C2OC2CC(C)(NCc3ccc(-c4ccc(O)cc4)cc3)C(O)C(C)O2)Oc2ccc(cc2Cl)C1O (centres unmarked) [Compound 20, 4-[4-hydroxyphenyl]benzyl]
≤ 0.06 | 1 (≈ 0.571 µM) | CNC(CC(C)C)C(=O)NC1C(=O)NC(CC(N)=O)C(=O)NC2C(=O)NC3C(=O)NC(C(=O)NC(C(=O)O)c4cc(O)cc(O)c4-c4cc3ccc4O)C(OC3CC(C)(N)C(O)C(C)O3)c3ccc(c(Cl)c3)Oc3cc2cc(c3OC2OC(CO)C(O)C(O)C2OC2CC(C)(NCCCCCCc3ccccc3)C(O)C(C)O2)Oc2ccc(cc2Cl)C1O (centres unmarked) [Compound 196, 6-phenylhexyl]
≤ 0.06 | 1 (≈ 0.549 µM) | CN[C@H](CC(C)C)C(=O)N[C@H]1C(=O)N[C@@H](CC(N)=O)C(=O)N[C@H]2C(=O)N[C@H]3C(=O)N[C@H](C(=O)N[C@H](C(=O)O)c4cc(O)cc(O)c4-c4cc3ccc4O)[C@H](O[C@H]3C[C@](C)(N)[C@@H](O)[C@H](C)O3)c3ccc(c(Cl)c3)Oc3cc2cc(c3O[C@@H]2O[C@H](CO)[C@@H](O)[C@H](O)[C@H]2O[C@H]2C[C@](C)(NCc3ccc(OCc4ccc(Cl)cc4)cc3)[C@@H](O)[C@H](C)O2)Oc2ccc(cc2Cl)[C@H]1O [Compound 93, 4-[4-chlorobenzyloxy]benzyl]
 | 8 (≈ 4.43 µM) | CNC(CC(C)C)C(=O)NC1C(=O)NC(CC(N)=O)C(=O)NC2C(=O)NC3C(=O)NC(C(=O)NC(C(=O)O)c4cc(O)cc(O)c4-c4cc3ccc4O)C(OC3CC(C)(N)C(O)C(C)O3)c3ccc(c(Cl)c3)Oc3cc2cc(c3OC2OC(CO)C(O)C(O)C2OC2CC(C)(NCc3ccc([S+]([O-])c4ccccc4)cc3)C(O)C(C)O2)Oc2ccc(cc2Cl)C1O (centres unmarked) [Compound 159, 4-[phenylsulfinyl]benzyl]
 | 16 (≈ 9.03 µM) | CNC(CC(C)C)C(=O)NC1C(=O)NC(CC(N)=O)C(=O)NC2C(=O)NC3C(=O)NC(C(=O)NC(C(=O)O)c4cc(O)cc(O)c4-c4cc3ccc4O)C(OC3CC(C)(N)C(O)C(C)O3)c3ccc(c(Cl)c3)Oc3cc2cc(c3OC2OC(CO)C(O)C(O)C2OC2CC(C)(NCc3ccc(OCC(O)CO)cc3)C(O)C(C)O2)Oc2ccc(cc2Cl)C1O (centres unmarked) [Compound 177, 4-[2,3-dihydroxypropoxy]benzyl]
